Where a name gives a salt, the structure may show the parent alone.

The first test deals with Steroidogenic factor 1 (Homo sapiens, UniProt Q13285). The test is described as follows: SF-1 inhibitor potency, dose response, cell-based, CHO-K1, Gal4-SF-1 LBD, luciferase luminescence (AID 600).
Steroidogenic factor 1, sequence (Q13285 whole entry, the tested form may be a part): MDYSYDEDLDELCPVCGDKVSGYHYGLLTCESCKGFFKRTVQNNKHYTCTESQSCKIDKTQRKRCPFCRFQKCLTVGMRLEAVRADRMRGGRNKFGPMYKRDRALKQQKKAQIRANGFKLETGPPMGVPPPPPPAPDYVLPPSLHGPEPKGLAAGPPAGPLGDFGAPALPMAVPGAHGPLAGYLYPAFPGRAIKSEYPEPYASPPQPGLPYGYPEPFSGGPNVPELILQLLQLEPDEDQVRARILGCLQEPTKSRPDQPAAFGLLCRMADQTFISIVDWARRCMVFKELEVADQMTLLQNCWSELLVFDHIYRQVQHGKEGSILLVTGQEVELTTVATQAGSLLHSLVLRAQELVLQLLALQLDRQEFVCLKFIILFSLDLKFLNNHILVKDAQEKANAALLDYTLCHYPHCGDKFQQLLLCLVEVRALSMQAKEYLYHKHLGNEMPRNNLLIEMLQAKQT
Settings: not given
As for `CCCCn1c2c(c(=O)n(C)c1=O)C(c1ccc(OC)cc1)N1CCCCCC1=N2` (stereo unspecified) [1-butyl-5-(4-methoxyphenyl)-3-methyl-5,7,8,9,10,11-hexahydropyrimido[3,4]pyrimid[4,5-a]azepine-2,4-quinone], the half-maximal inhibitory concentration (IC50) (in general, the midpoint of a concentration-inhibition curve) was 8.03 µM.

For `CC[C@H]1CN2CCc3cc(OC)c(OC)cc3[C@@H]2C[C@@H]1C[C@H]1NCCc2cc(OC)c(OC)cc21`, 0.202 µM corresponded to half-maximal inhibition (IC50). Compared with the last compound, the IC50 is about 40-fold lower.

Regarding `Cc1cc(-n2c(C)cc(C(=O)CSc3ncnc4ccccc34)c2C)no1` [1-[2,5-dimethyl-1-(5-methyl-1,2-oxazol-3-yl)pyrrol-3-yl]-2-quinazolin-4-ylsulfanyl-ethanone], it took 9.13 µM to reach half-maximal inhibition (IC50).

`COc1ccc(C(=O)Nn2c(SCC(=O)NCC3CCCO3)nc3ccccc3c2=O)cc1` (stereo unspecified) [4-methoxy-N-[4-oxidanylidene-2-[2-oxidanylidene-2-(oxolan-2-ylmethylamino)ethyl]sulfanyl-quinazolin-3-yl]benzamide] yielded an IC50 of 4.29 µM.

As to `CCOC(=O)c1cnc(-n2nc(C)cc2C)nc1NC1CCCCC1` [4-(cyclohexylamino)-2-(3,5-dimethyl-1-pyrazolyl)-5-pyrimidinecarboxylic acid ethyl ester], the IC50 came out at 5.67 µM. The IC50 values of the last two compounds are within 1.5-fold of each other.

Turning to `c1c2c(cc3sc(N4CCCCC4)nc13)OCCO2` [2-(1-piperidinyl)-6,7-dihydro-[1,4]dioxino[2,3-f][1,3]benzothiazole], it took 3.91 µM to reach half-maximal inhibition (IC50).

Regarding `COc1ccc(C=Nn2nnc3ccccc32)cc1` [MLS000043825], the IC50 was more than 3.67 µM.

`Oc1c(CN2CCCCC2)cc(Br)c2cccnc12` [5-bromanyl-7-(piperidin-1-ylmethyl)quinolin-8-ol] returned a 50% inhibitory concentration (IC50) of more than 3.67 µM.

In turn, `COC(=O)C1C(=CN2CCCc3ccccc32)NC(=O)NC1c1ccc(F)cc1` (stereo unspecified) [6-(3,4-dihydro-2H-quinolin-1-ylmethyl)-4-(4-fluorophenyl)-2-keto-3,4-dihydro-1H-pyrimidine-5-carboxylic acid methyl ester] registered an IC50 of 5.34 µM.

Regarding `CCCS(=O)(=O)c1nnnn1-c1cccc(OC)c1` [1-(3-methoxyphenyl)-5-(propylsulfonyl)-1H-tetrazole], the IC50 was 4.96 µM.

The compound `N#CC1C(=N)C(C#N)(C#N)[C@H](c2ccncc2)[C@H]2CN(C(=O)OCc3ccccc3)CC=C12` (stereo partly drawn) [(8S,8aR)-6-amino-5,7,7-tricyano-8-(4-pyridyl)-1,3,8,8a-tetrahydroisoquinoline-2-carboxylic acid benzyl ester] had an IC50 of 14.7 µM.

On to `O=C(Cc1ccc(Cl)cc1)Nc1ccc(-c2nnc(-c3ccco3)o2)cc1` [2-(4-chlorophenyl)-N-[4-[5-(2-furanyl)-1,3,4-oxadiazol-2-yl]phenyl]acetamide], for which the IC50 amounted to 9.18 µM.

`Cc1ccc(-c2nc3nc4ccccc4nc3n2Cc2ccco2)cc1` [3-(2-furanylmethyl)-2-(4-methylphenyl)imidazo[4,5-b]quinoxaline] had an IC50 of 6.89 µM.

`CCn1c(C)nc2cc(-c3nc4n(n3)Cc3ccccc3-4)ccc21` [2-(1-ethyl-2-methyl-5-benzimidazolyl)-5H-[1,2,4]triazolo[5,1-a]isoindole]: the IC50 was less than 0.00503 µM.

On to `CC1(C)COCN1S(=O)(=O)c1ccc(C(=O)Nc2nnc(-c3ccc(Cl)s3)o2)cc1` [MLS000086346], for which the midpoint of inhibition, the IC50, lay at 7.61 µM.

Take `COc1ccc(-c2noc(CCCC(=O)NCCc3ccccc3)n2)cc1OC` [4-[3-(3,4-dimethoxyphenyl)-1,2,4-oxadiazol-5-yl]-N-(2-phenylethyl)butanamide]: it took 4.15 µM to reach half-maximal inhibition (IC50).

`COC(=O)c1ccc(-n2c(O)cc(N3CCC(n4c(=O)[nH]c5ccccc54)CC3)c2O)cc1` [4-[2,5-dioxo-3-[4-(2-oxo-3H-benzimidazol-1-yl)-1-piperidinyl]-1-pyrrolidinyl]benzoic acid methyl ester] came in with an IC50 of more than 99 µM.

With `CN1C2C=C3C(C#N)=C(N)C(C#N)(C#N)[C@@H](c4ccc(Cl)cc4)[C@@H]3C1CC2` (stereo partly specified) [SMR000038778], it took 3.35 µM to reach half-maximal inhibition (IC50).

`O=C(CC=Nc1cccc(F)c1)c1ccc2c(c1)OCO2`: the IC50 is 4.65 µM.

On to `CCN(CC)c1ccc2cc(NC(=O)CCC(=O)O)c(=O)oc2c1` [4-[[7-(diethylamino)-2-keto-chromen-3-yl]amino]-4-keto-butyric acid], for which it took 5.11 µM to reach half-maximal inhibition (IC50).

Take `COc1cc(C2c3ccc(N(C)C)cc3OC(=N)C2C#N)cc2c1OCO2` (stereo unspecified) [2-amino-7-(dimethylamino)-4-(7-methoxy-1,3-benzodioxol-5-yl)-4H-1-benzopyran-3-carbonitrile]: the half-maximal inhibitory concentration (IC50) was more than 3.67 µM.

In the case of `[H][C@@]12C[N@@](CCc3c([nH]c4ccccc34)[C@@](C(=O)OC)(c3cc4c(cc3OC)N(C=O)[C@]3([H])[C@]45CC[N@@]4CC=C[C@@](CC)([C@@H](OC(C)=O)[C@]3(O)C(=O)OC)[C@]45[H])C1)C[C@](O)(CC)C2`, the IC50 came to 3.56 µM.

`Cc1nc(N2CCN(c3ccccc3)CC2)nc(O)c1Cc1cccc2ccccc12` [MLS000084491] registered an IC50 of more than 3.67 µM.

With `CCOC(=O)CSc1nc2cc(C(=O)NCc3ccco3)ccc2c(=O)n1-c1ccc(F)cc1` [2-[[3-(4-fluorophenyl)-7-(2-furfurylcarbamoyl)-4-keto-quinazolin-2-yl]thio]acetic acid ethyl ester], the IC50 was more than 11 µM.

For `Cc1ccc2nc(-c3ccccc3)cn2c1` [6-methyl-2-phenyl-imidazo[1,2-a]pyridine;hydrobromide], the concentration for half-maximal inhibition (IC50) stood at 1.96 µM.

Compound `CCOc1ccc(-c2nc(CSCC(=O)NCCN3CCOCC3)c(C)o2)cc1` [2-({[2-(4-ethoxyphenyl)-5-methyl-1,3-oxazol-4-yl]methyl}thio)-N-(2-morpholin-4-ylethyl)acetamide] returned an IC50 of 4.36 µM.

`Cc1ccc(S(=O)(=O)Nc2cccc3ncccc23)s1` [5-methyl-N-quinolin-5-ylthiophene-2-sulfonamide]: it took 5.75 µM to reach half-maximal inhibition (IC50).

`CCCCS(=O)(=O)/C=C\C=C/S(=O)(=O)CCCC` [SMR000020833] displayed an IC50 of 1.3 µM.

The compound `c1ccc(-c2ccc(-c3ccccn3)nn2)nc1` [3,6-bis(2-pyridinyl)pyridazine] yielded an IC50 of more than 11 µM.

Regarding `CCSc1nnc(NC(=O)c2ccccn2)s1` [MLS000056851], the IC50 was more than 3.67 µM.

Still in this test, the particulars now being: inactive by the depositor's call.
In turn, `COc1ccc(NC(=O)N2CCCC(c3nc(-c4ccc(C(C)C)cc4)no3)C2)cc1` (stereo unspecified) [3-[3-(4-Isopropyl-phenyl)-[1,2,4]oxadiazol-5-yl]-piperidine-1-carboxylic acid (4-methoxy-phenyl)-amide] displayed an IC50 of 14 µM.

Consider `Cc1ccccc1S(=O)(=O)Cc1ccc(C(=O)N2CCN(c3cccc(C)c3C)CC2)o1` [1-(2,3-dimethylphenyl)-4-(5-{[(2-methylphenyl)sulfonyl]methyl}-2-furoyl)piperazine], for which the IC50 stood at 13.4 µM.

`CC(C)Cn1c(N)c(C(=O)CSc2ccc3c(c2)OCCO3)c(=O)n(C)c1=O` [6-amino-5-[2-(2,3-dihydro-1,4-benzodioxin-6-ylsulfanyl)acetyl]-3-methyl-1-(2-methylpropyl)pyrimidine-2,4-dione]: the IC50 was determined as 13.4 µM. In other words, the double-digit micromolar range.

The compound `CCOc1ccc(-c2cc(CCCC(=O)Nc3cc(OC)ccc3OC)no2)cc1` [MLS000045930] yielded an IC50 of 12.7 µM.

As for `COc1ccc(-c2cc(C(=O)O)c(C)o2)cc1OC` [5-(3,4-dimethoxyphenyl)-2-methyl-3-furancarboxylic acid], the IC50 was 10.8 µM. The IC50 values of the last two compounds are within 1.5-fold of each other.

The compound `COc1cccc(Cn2c(NCc3ccco3)nc3c2c(=O)n(C)c(=O)n3C)c1` [8-(2-furanylmethylamino)-7-[(3-methoxyphenyl)methyl]-1,3-dimethylpurine-2,6-dione] came in with an IC50 of 25.4 µM.
